Here are results for 38 sequences from patent US12037583B2, “Compositions and methods for immunooncology” (Novartis AG, priority 2015, dated 2024).

The subject of data set [1] is TRAC locus. Nature of the data set: Genomic editing of the TRAC locus in primary human CD3+ T cells by RNP electroporation (NGS: % indels, % frameshift edits, indel pattern).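 As to all read-outs here: total edit is the insertion or deletion frequency at TRAC, and the frameshift value is the share of those indels that shift the coding frame.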 It is filed as cell-based. Particulars: dgRNA/Cas9 RNP by electroporation, target TRAC; for mean FS edit (%): frameshift edits in primary human CD3+ T cells; for mean total % edit: primary human CD3+ T cells, mean of at least 3 experiments.
Source text: (§1) FIG. 12: Mean (n≥3) editing of CRISPR systems with dgRNAs as indicated to TRAC in HEK cells (stably expressing Cas9) or primary human CD3+ T cells (delivery of dgRNA:Cas9 RNP by electroporation).
FIG. 33C: Genomic editing of the TRAC locus resulting from human primary T cell electroporation with RNP containing the indicated gRNA targeting the TRAC locus is shown. The frequency of insertions or deletions is indicated (% indels) and the percentage of these edits that result in frameshifting of the coding sequence is shown (% frameshift edits).
Data for each experiment are the average from triplicate PCR products.

The test system of data set [2] is TRAC. Nature of the data set: Editing of TRAC by dgRNAs in HEK cells stably expressing Cas9 (NGS). It is filed as cell-based, human. Particulars: dgRNA delivered to HEK cells stably expressing Cas9, target TRAC, mean of at least 3 experiments.
Source text: as §1

With “AGGCUUCUCACCCUGCAGCA (chemistry not given here; listed as Homo sapiens) [CR000923]”, in data set [1], the “mean FS edit (%)” value came to 32.7% and the “mean total % edit” value is 37.3%. The sequence also showed a mean % edit in data set [2] of 67.4%.
In the case of “AGUUGGUGGCAUUGCCGGGG (chemistry not given here; listed as Homo sapiens) [CR001015]”, in data set [1], the “mean FS edit (%)” value is 20.4% and the “mean total % edit” value stood at 21.8%. Moreover, the mean % edit in data set [2] is recorded as 35.9%.
The corresponding values for “AUAUGUGCAGCUCAGGGUCA (chemistry not given here; listed as Homo sapiens) [CR000937]” are 10.8%, 15.8% and 50.9%.
The corresponding values for “AUCCUCCUCCUGAAAGUGGC (chemistry not given here; listed as Homo sapiens) [CR000987]” are 18.2%, 20.6% and 39.6%.
Taken in the same sequence, the figures for “CAAUGCAGAGGAAGGAGCGA (chemistry not given here; listed as Homo sapiens) [CR000997]” were 6.4%, 6.7% and 11.6%.
Consider “CACACCUCUUGUCUUUGGAA (chemistry not given here; listed as Homo sapiens) [CR000954]”, for which, in data set [1], the “mean FS edit (%)” value is 2.6% and the “mean total % edit” value came out at 2.7%. Besides, in data set [2], the mean % edit stood at 22.3%.
Take “CACCAAAGCUGCCCUUACCU (chemistry not given here; listed as Homo sapiens) [CR000977]”: in data set [1], the “mean FS edit (%)” value is given as 35.7% and the “mean total % edit” value is recorded as 44.2%. The sequence further displayed a mean % edit in data set [2] of 80.6%.
Consider “CCACUUUCAGGAGGAGGAUU (chemistry not given here; listed as Homo sapiens) [CR000986]”, for which, in data set [1], the “mean FS edit (%)” value is given as 14.8% and the “mean total % edit” value came out at 36.4%. Further, the mean % edit in data set [2] is on record as 68.6%.
The corresponding values for “CCAGGGCAUGCCAUGCUCAC (chemistry not given here; listed as Homo sapiens) [CR000928]” are 14.6%, 18.1% and 54.2%.
The corresponding values for “CCUGUGAGCAUGGCAUGCCC (chemistry not given here; listed as Homo sapiens) [CR000927]” are 22.6%, 23.8% and 68.7%.
Turning to “CUACCACCUCUGUGCCCCCC (chemistry not given here; listed as Homo sapiens) [CR001012]”, in data set [1], the “mean FS edit (%)” value stood at 22.9% and the “mean total % edit” value was 31.5%. The sequence further returned a mean % edit in data set [2] of 64.5%.
Taken in the same sequence, the figures for “CUGACAGGUUUUGAAAGUUU (chemistry not given here; listed as Homo sapiens) [CR000981]” were 25.1%, 37.6% and 70.0%.
For “CUGGGGAAGAAGGUGUCUUC (chemistry not given here; listed as Homo sapiens) [CR000973]”, in data set [1], the “mean FS edit (%)” value came out at 12.4% and the “mean total % edit” value came out at 16.2%. In addition, the mean % edit in data set [2] amounted to 39.7%.
The corresponding values for “CUUCAAGAGCAACAGUGCUG (chemistry not given here; listed as Homo sapiens) [CR000969]” are 20.9%, 24.8% and 34.0%.
The corresponding values for “GAGAAUCAAAAUCGGUGAAU (chemistry not given here; listed as Homo sapiens) [CR000964]” are 23.5%, 27.0% and 51.2%.
Taken in the same sequence, the figures for “GAGGCUUCUCACCCUGCAGC (chemistry not given here; listed as Homo sapiens) [CR000922]” were 5.0%, 6.4% and 37.8%.
With “GAGUUCCCUCUGUUUGGAGA (chemistry not given here; listed as Homo sapiens) [CR001004]”, in data set [1], the “mean FS edit (%)” value came out at 6.4% and the “mean total % edit” value was 6.7%. In data set [2], this sequence displayed a mean % edit of 47.2%.
As for “GCAAUGCAGAGGAAGGAGCG (chemistry not given here; listed as Homo sapiens) [CR000998]”, in data set [1], the “mean FS edit (%)” value is given as 2.2% and the “mean total % edit” value worked out at 2.4%. The mean % edit in data set [2] amounted to 4.3%.
As to “GCAGCAGGGACCUGUGAGCA (chemistry not given here; listed as Homo sapiens) [CR000926]”, in data set [1], the “mean FS edit (%)” value is 19.9% and the “mean total % edit” value is 22.5%. Moreover, the mean % edit in data set [2] amounted to 73.0%.
The corresponding values for “GCAUUGCCGGGGGGGCACAG (chemistry not given here; listed as Homo sapiens) [CR001014]” are 24.3%, 27.3% and 52.7%.
The corresponding values for “GCUGUAUGUGUGAGUUGGUG (chemistry not given here; listed as Homo sapiens) [CR000948]” are 18.4%, 20.3% and 84.5%.
Taken in the same sequence, the figures for “GCUUUCACCUCCUUGGGGGU (chemistry not given here; listed as Homo sapiens) [CR001008]” were 4.5%, 5.1% and 13.6%.
As to “GGAAACACACCUCUUGUCUU (chemistry not given here; listed as Homo sapiens) [CR000953]”, in data set [1], the “mean FS edit (%)” value came out at 14.4% and the “mean total % edit” value is given as 17.7%. In data set [2], this sequence came in with a mean % edit of 66.0%.
Taken in the same sequence, the figures for “GGUGUCAUAUGUGCAGCUCA (chemistry not given here; listed as Homo sapiens) [CR000938]” were 12.5%, 13.9% and 55.0%.
Taken in the same sequence, the figures for “GUAGCAGCUUUCACCUCCUU (chemistry not given here; listed as Homo sapiens) [CR001011]” were 10.8%, 13.2% and 64.8%.
The corresponding values for “GUAGGAGAGUUCCCUCUGUU (chemistry not given here; listed as Homo sapiens) [CR001006]” are 10.4%, 13.6% and 56.8%.
For “UAAACCCGGCCACUUUCAGG (chemistry not given here; listed as Homo sapiens) [CR000990]”, in data set [1], the “mean FS edit (%)” value stood at 25.3% and the “mean total % edit” value is 36.1%. For the same sequence, the mean % edit in data set [2] came out at 63.7%.
Taken in the same sequence, the figures for “UAAAUAAUAAUCACUCUCAC (chemistry not given here; listed as Homo sapiens) [CR000940]” were 14.4%, 22.1% and 55.0%.
For the sequence “UAGCAGCUUUCACCUCCUUG (chemistry not given here; listed as Homo sapiens) [CR001010]”, in data set [1], the “mean FS edit (%)” value is 18.6% and the “mean total % edit” value is 21.2%. This sequence returned a mean % edit in data set [2] of 48.3%.
Taken in the same sequence, the figures for “UAGGCAGACAGACUUGUCAC (chemistry not given here; listed as Homo sapiens) [CR000963]” were 25.3%, 32.5% and 68.4%.
With “UAUUCUUGUGCUCUCAGAGA (chemistry not given here; listed as Homo sapiens) [CR000952]”, in data set [1], the “mean FS edit (%)” value was determined as 5.6% and the “mean total % edit” value is given as 5.8%. The mean % edit in data set [2] is 57.9%.
Taken in the same sequence, the figures for “UCAAGGCCCCUCACCUCAGC (chemistry not given here; listed as Homo sapiens) [CR000995]” were 2.5%, 1.9% and 23.2%.
Taken in the same sequence, the figures for “UCCUCCUCCUGAAAGUGGCC (chemistry not given here; listed as Homo sapiens) [CR000988]” were 17.4%, 22.3% and 41.9%.
As for “UCUGUUGCUUAUAAGCUUCU (chemistry not given here; listed as Homo sapiens) [CR000946]”, in data set [1], the “mean FS edit (%)” value was 9.2% and the “mean total % edit” value is listed as 9.8%. For the same sequence, the mean % edit in data set [2] is recorded as 65.9%.
The corresponding values for “UGCUCACAGGUCCCUGCUGC (chemistry not given here; listed as Homo sapiens) [CR000925]” are 12.3%, 19.1% and 56.9%.
In the case of “UGCUCAUGACGCUGCGGCUG (chemistry not given here; listed as Homo sapiens) [CR000994]”, in data set [1], the “mean FS edit (%)” value is reported as 10.8% and the “mean total % edit” value is reported as 21.5%. For the same sequence, the mean % edit in data set [2] was determined as 46.9%.
The corresponding values for “UGGUGUCAUAUGUGCAGCUC (chemistry not given here; listed as Homo sapiens) [CR000939]” are 12.1%, 13.5% and 27.7%.
The corresponding values for “UUCAAAACCUGUCAGUGAUU (chemistry not given here; listed as Homo sapiens) [CR000983]” are 18.2%, 26.6% and 59.8%.
